Measured values published in patent US10517869B2 (SENTISS PHARMA PRIVATE LIMITED, priority 2013, dated 2019).
Like-named read-outs stand apart in the source and are kept apart here.

Tests used:
[1] = Compatibility of quaternary ammonium preservative with brimonidine (precipitation); assay type: physicochemical; settings: pH of around 6.0
Description: Benzododecinium bromide forms an ion pair with brimonidine, thereby neutralizing the charge of brimonidine.
Benzododecinium halide (e.g., bromide) forms an ion pair with brimonidine, thereby neutralizing the charge of brimonidine. […] Thus it was surprising to find that benzododecinium halide is compatible with brimonidine.

[2] = at a pH of 6.4
[3] = cited from earlier work

Q: For `CCCCCCCCCCCC[N+](C)(C)Cc1ccccc1.[Br-]` [benzododecinium bromide], which precipitation with brimonidine [1] is on record?
A: does not form a precipitation with brimonidine

Q: For `Brc1c(NC2=NCCN2)ccc2nccnc12` [Brimonidine], which ionized [2] is on record?
A: about 90%

Q: With brimonidine tartrate as the compound, how does the Solubility ([3]; Study 1, pH 5.55) read?
A: ≥164.4

Q: And the Solubility ([3]; Study 1, pH 5.92)?
A: 132.6

Q: What about the Solubility ([3]; Study 1, pH 6.14) of the same compound?
A: 30.4

Q: And the Solubility ([3]; Study 1, pH 6.57)?
A: 7.55

Q: What about the Solubility ([3]; Study 1, pH 7) of the same compound?
A: 2.69

Q: And the Solubility ([3]; Study 1, pH 7.45)?
A: 1.17

Q: What about the Solubility ([3]; Study 1, pH 7.83) of the same compound?
A: 0.62

Q: What about the Solubility ([3]; Study 2, pH 5.5) of the same compound?
A: ≥200.6

Q: What about the Solubility ([3]; Study 2, pH 5.92) of the same compound?
A: 160.8

Q: What about the Solubility ([3]; Study 2, pH 6.06) of the same compound?
A: 50.1

Q: And the Solubility ([3]; Study 2, pH 6.9)?
A: 3.19

Q: What about the Solubility ([3]; Study 2, pH 7.4) of the same compound?
A: 1.19

Q: And the Solubility ([3]; Study 2, pH 7.77)?
A: 0.63

Q: And the Solubility ([3]; Study 2, pH 7.86)?
A: 0.58

Q: What about the Solubility ([3]; Study 2, pH 7.88) of the same compound?
A: 0.54

Q: Which precipitation with brimonidine [1] does the source give for benzalkonium chloride here?
A: forms a hazy solution
